Reference: patent US4857524A, “Thiazolidine compounds and therapeutic method” (Kissei Pharmaceutical Co., Ltd., priority 1987, dated 1989)
Square brackets hold non-standard residues; d marks the D form. Peptide text beside a SMILES is read from it. * marks the point of attachment. Thz = O=C(O)[C@@H]1CSCN1; Cbz = O=C(OCc1ccccc1)*

target: T1, prolyl endopeptidase (Bos taurus, UniProt Q9XTA2); assay: Inhibitory Effect for Prolyl Endopeptidase (enzyme purified from bovine brain); format: biochemical
T1 construct: the enzyme purified from bovine brain; from tissue; host or cells: bovine brain
T1 sequence (Q9XTA2 1-710): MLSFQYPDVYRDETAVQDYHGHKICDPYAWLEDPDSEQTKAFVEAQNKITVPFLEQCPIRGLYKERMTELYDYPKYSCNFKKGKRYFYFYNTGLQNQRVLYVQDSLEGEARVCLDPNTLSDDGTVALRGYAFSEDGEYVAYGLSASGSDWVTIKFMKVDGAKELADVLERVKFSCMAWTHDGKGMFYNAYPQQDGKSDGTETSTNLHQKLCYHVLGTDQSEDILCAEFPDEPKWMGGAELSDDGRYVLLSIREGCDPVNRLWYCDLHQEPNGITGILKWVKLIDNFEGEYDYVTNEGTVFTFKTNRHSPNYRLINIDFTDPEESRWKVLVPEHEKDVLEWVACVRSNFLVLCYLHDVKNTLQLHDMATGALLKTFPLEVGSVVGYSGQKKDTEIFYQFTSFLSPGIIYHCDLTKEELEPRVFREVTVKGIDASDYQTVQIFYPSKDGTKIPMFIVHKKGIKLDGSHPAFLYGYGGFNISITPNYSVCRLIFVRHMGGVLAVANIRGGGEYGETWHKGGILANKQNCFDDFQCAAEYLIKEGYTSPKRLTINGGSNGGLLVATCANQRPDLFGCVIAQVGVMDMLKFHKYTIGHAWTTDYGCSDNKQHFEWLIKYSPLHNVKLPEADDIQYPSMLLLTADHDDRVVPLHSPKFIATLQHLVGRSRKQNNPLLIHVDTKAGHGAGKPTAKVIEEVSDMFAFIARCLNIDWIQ
Protocol: To 0.5 ml of the supernatant was added 0.5 ml of 0.1% sodium nitrite aqueous solution, and after 3 minutes, 0.5 ml of 0.5% ammonium sulfamate and 1 ml of 0.05% N-(1-naphthyl)ethylenediamine dihydrochloride in ethanol were further added . The mixture was left for 25 minutes at 37° C., and the absorbance was measured at 570 nm.
The unit of the enzyme activity (μmol/min/ml)=ΔOD×0.42×a dilution factor

In order of rising IC50:
1. O=C([C@@H]1CSCN1C(=O)OCc1ccccc1)N1CCSC1 [Compound A, 3-[(R)-(-)-3-Benzyloxycarbonylthiazolidine-4-carbonyl]thiazolidine]  0.26 nM
2. O=C([C@@H]1CSCN1C(=O)Cc1ccccc1)N1CCSC1 [Compound N, 3-[(R)-(-)-3-Phenylacetylthiazolidine-4-carbonyl]thiazolidine]  63.1 nM
3. COC(=O)[C@@H]1CSCN1C(=O)[C@@H]1CSCN1C(=O)OCc1ccccc1 [Compound G, (R)-(-)-3-[(R)-(-)-3-Benzyloxycarbonylthiazolidine-4-carbonyl]thiazolidine-4-carboxylic acid methyl ester] (Cbz-[Thz]-[Thz]-OMe)  210 nM
4. O=C([C@@H]1CSCN1C(=O)CCc1ccccc1)N1CCSC1 [Compound H, 33-[(R)-(-)-3-(3-Phenylpropionyl)thiazolidine-4-carbonyl]thiazolidine]  400 nM
5. O=C([C@@H]1CSCN1C(=O)Cc1ccccc1)N1CCCC1 [Compound O, 1-[(R)-(-)-3-Phenylacetylthiazolidine-4-carbonyl]pyrrolidine]  660 nM
6. O=C([C@@H]1CSCN1C(=O)c1ccncc1)N1CCSC1 [Compound U, 3-[(R)-(-)-3-Isonicotinoylthiazoidine-4-carbonyl]thiazolidine]  1300 nM
7. O=C([C@@H]1CSCN1C(=O)C=Cc1ccccc1)N1CCSC1 [Compound P, 3-[(R)-(-)-3-Cinnamoylthiazolidine-4-carbonyl]thiazolidine]  3240 nM
8. O=C([C@@H]1CSCN1C(=O)C=Cc1ccccc1)N1CCCC1 [Compound Q, 1-[(R)-(-)-3-Cinnamoylthiazolidine-4-carbonyl]pyrrolidine]  4600 nM
9. COC(=O)[C@@H]1CCCN1C(=O)[C@@H]1CSCN1C(=O)OCc1ccccc1 [Compound B, (S)-(-)-N-[(R)-(-)-3-Benzyloxycarbonylthiazolidine-4-carbonyl]pyrrolidine-2-carboxylic acid methyl ester] (Cbz-[Thz]-Pro-OMe)  72000 nM
10. O=C([C@@H]1CSCN1C(=O)OCc1ccccc1)N1CCSCC1 [Compound F, N-[(R)-(-)-3-Benzyloxycarbonylthiazolidine-4-carbonyl]thiomorpholine]  230000 nM
